From patent publication US8790708B2, “Coated tablet formulations and uses thereof” (Wyeth LLC, priority 2009, dated 2014)
Structures can show the parent of a compound that is named as a salt.

Assay: Surface free energy (work of cohesion) of particles
Format: physicochemical
Source text: This property renders the primary particles very cohesive and prone to aggregation as described by B. Janczuk and T. Bialopiotrowicz, “Surface Free-Energy Components of Liquids and Low Energy Solids and Contact Angles,” in J. Colloid Interf. Sci. 127 (1989), p. 189-204; W. R. Good, “A Comparison of Contact Angle Interpretations,” in J. Colloid Interf. Sci. 44 (1973), p. 63; M. D. Lechner (Ed.), Landolt Börnstein, New Series, Vol. IV/16, “Surface Tension of Pure Liquids and Binary Liquid Mixture,” Springer Verlag, 1998; and J. J. Jasper, “The Surface Tension of Pure Liquid Compounds,” in J. Phys. Chem. Ref. Data, Vol. 1, No. 4, 1972, p. 859. […] Due to these limitations, it was not possible to develop a neratinib maleate formulation comprising a capsule or tablet of higher strength employing a direct compression or roller compaction processes successfully. A formulation using a conventional wet granulation method led to chemical degradation and stability issues.

## CCOc1cc2ncc(C#N)c(Nc3ccc(OCc4ccccn4)c(Cl)c3)c2cc1NC(=O)/C=C/CN(C)C [Neratinib maleate, (E)-N-(4-(3-chloro-4-(pyridin-2-ylmethoxy)phenylamino)-3-cyano-7-ethoxyquinolin-6-yl)-4-(dimethylamino)but-2-enamide]
  work of cohesion (surface free energy): 45.62 mN/m
